The results in this text go back to article PMC9028278, “2-Pyridine Carboxaldehyde for Semi-Automated Soft Spot Identification in Cyclic Peptides” (International Journal of Molecular Sciences, 2022).

Molecules are shown by their SMILES. Where a SMILES comes first, the peptide text is derived from it. Bridges are numbered along the chain shown (N, C = ends).

This data set is described as follows: Soft spot identification time course in dilute rat intestinal luminal contents with 2PCA derivatization. In kind it is in vitro ADME. The note with it: 10 µM peptide; for metabolic soft spot: most N-terminal residue of the ring-opened (singly hydrolyzed) peptide, assigned through the 2PCA tag: dilute rat intestinal luminal contents (fasted male SD rats, duodenum and jejunum), 0.02 mg/mL total protein in 5 mM pH 7.4 phosphate buffer, 37 °C, aliquots at 0, 2.5, 10, 20 min, quenched with acetonitrile containing 20 mM 2PCA, overnight at room temperature, LC-MS/MS (targeted MS/MS, AIF, background subtraction). How it is done: This three-pronged approach was used to analyze two commercially available cyclic peptides, JB1 and somatostatin, in a typical soft spot identification workflow with automated sample preparation. Both JB1, a 12-mer cyclic peptide with the sequence CYAAPLKPAKSC, and somatostatin, a 14-mer cyclic peptide with the sequence AGCKNFFWKTFTSC (disulfide bound between Cys residues), were subjected to incubation in dilute rat intestinal luminal contents matrix on a liquid handling system. To facilitate unsupervised sample preparation, the enzymatic activity of the matrix was quenched with 1 volume of acetonitrile containing 20 mM 2PCA and incubated overnight. The following day, the samples were injected into the MS for analysis directly with the approach outlined in Figure 3. To increase the throughput and proportion of ‘hands-off’ time, the derivatization step was not quenched, and excess reagent or Schiff bases formed during the incubation were not scavenged by hydrazide (as was performed during the selectivity experiments on the tryptic HeLa lysate). While omitting the hydrazide scavenging step could introduce a decrease in sensitivity due to Schiff base formation on basic sites, the concentrations typically used in in vitro incubations ensure that minor decreases in sensitivity will not have deleterious effects on the workflow as a whole. In this case, the liquid handler utilized was unable to manipulate magnetic beads, but future experiments will incorporate a magnetic-bead-compatible liquid handler to incorporate the scavenging step. The method described has the potential to create more than one 2PCA adduct on a given peptide with basic sites, but the utilization of a targeted approach for the singly modified peptide as outlined here circumvents that complication and ensures MS/MS sampling of the peptide of interest.
HeLa S9 lysate tryptic digest was purchased from ThermoFisher (San Jose, CA, USA). […]
The flushed intestinal luminal contents from fasted rats were pooled and the concentration of protein was determined. […]

For the molecule `C[C@H](N)C(=O)NCC(=O)N[C@H]1CSSC[C@@H](C(=O)O)NC(=O)[C@H](CO)NC(=O)[C@H]([C@@H](C)O)NC(=O)[C@H](Cc2ccccc2)NC(=O)[C@H]([C@@H](C)O)NC(=O)[C@H](CCCCN)NC(=O)[C@H](Cc2c[nH]c3ccccc23)NC(=O)[C@H](Cc2ccccc2)NC(=O)[C@H](Cc2ccccc2)NC(=O)[C@H](CC(N)=O)NC(=O)[C@H](CCCCN)NC1=O` [somatostatin], the “metabolic soft spot: most N-terminal residue of the ring-opened (singly hydrolyzed) peptide, assigned through the 2PCA tag” value is “first threonine (followed by phenylalanine)”.

In the case of `CC(C)C[C@@H]1NC(=O)[C@@H]2CCCN2C(=O)[C@H](C)NC(=O)[C@H](C)NC(=O)[C@H](Cc2ccc(O)cc2)NC(=O)[C@@H](N)CSSC[C@@H](C(=O)O)NC(=O)[C@H](CO)NC(=O)[C@H](CCCCN)NC(=O)[C@H](C)NC(=O)[C@@H]2CCCN2C(=O)[C@H](CCCCN)NC1=O` [JB1] (H-CYAAPLKPAKSC-OH; disulfide 1-12), the “metabolic soft spot: most N-terminal residue of the ring-opened (singly hydrolyzed) peptide, assigned through the 2PCA tag” value is given as “serine”. Besides, the “secondary metabolite (subsequent hydrolysis step after ring opening)” value (dilute rat intestinal luminal contents, 0.02 mg/mL protein, pH 7.4, 37 °C, 10 min time point, background subtracted AIF XIC of m/z 107.0609) was “clipping of the C-terminal Lysine residue”.
